Laboratory results from ChEMBL document CHEMBL1201862, “PubChem BioAssay data set” (2004).
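48-hour exposure; five concentrations; linearly interpolated endpoints. At the GI50, growth is halved.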 Activity calls are given as the source filed them. Cut-off read from the data, not from the text of the source: active = GI50 up to about 1.1 µM and inactive = higher.

How the values were obtained:
Assay in all cases: inhibition of tumour cell growth, NCI panel, 48 h
MDA-N = test system: MDA-N
NCI/ADR-RES = test system: NCI/ADR-RES
SW-620 = test system: SW-620
UACC-62 = test system: UACC-62
SF-295 = test system: SF-295
BT-549 = test system: BT-549
RXF 393 = test system: RXF 393
LOX IMVI = test system: LOX IMVI
HCT-15 = test system: HCT-15
NCI-H23 = test system: NCI-H23
SF-539 = test system: SF-539
DU-145 = test system: DU-145
Hs-578T = test system: Hs-578T
MDA-MB-231 = test system: MDA-MB-231
MOLT-4 = test system: MOLT-4
OVCAR-5 = test system: OVCAR-5
SNB-75 = test system: SNB-75
786-0 = test system: 786-0
UO-31 = test system: UO-31
HOP-92 = test system: HOP-92
HOP-62 = test system: HOP-62
CAKI-1 = test system: CAKI-1
K562 = test system: K562
PC-3 = test system: PC-3
SK-OV-3 = test system: SK-OV-3
HCT-116 = test system: HCT-116
SN12C = test system: SN12C
NCI-H460 = test system: NCI-H460
KM12 = test system: KM12
SF-268 = test system: SF-268
SK-MEL-2 = test system: SK-MEL-2
COLO 205 = test system: COLO 205
MDA-MB-435 = test system: MDA-MB-435
UACC-257 = test system: UACC-257
SNB-19 = test system: SNB-19
NCI-H522 = test system: NCI-H522
OVCAR-8 = test system: OVCAR-8
T47D = test system: T47D
ACHN = test system: ACHN
SK-MEL-5 = test system: SK-MEL-5
HCC 2998 = test system: HCC 2998
OVCAR-3 = test system: OVCAR-3
OVCAR-4 = test system: OVCAR-4
TK-10 = test system: TK-10
M14 = test system: M14
U-251 = test system: U-251
MCF7 = test system: MCF7
A498 = test system: A498
SR = test system: SR
CCRF-CEM = test system: CCRF-CEM
IGROV-1 = test system: IGROV-1
HL-60 = test system: HL-60
SK-MEL-28 = test system: SK-MEL-28
HT-29 = test system: HT-29
Malme-3M = test system: Malme-3M
NCI-H226 = test system: NCI-H226
EKVX = test system: EKVX
A549 = test system: A549
RPMI-8226 = test system: RPMI-8226

C=C1[C@H](OCC(C)C)[C@@H](OCC(C)C)[C@@H](O)C(C)(C)/C=C/[C@H](C)C(=O)[C@@]2(O)C[C@H](C)[C@H](O)[C@@H]2[C@H]1OCC(C)C
GI50 (MDA-N): 1.54 µM (inactive)
GI50 (NCI/ADR-RES): > 7.5 µM (inactive)
GI50 (SW-620): 7.38 µM (inactive)
GI50 (UACC-62): 7.19 µM (inactive)
GI50 (SF-295): 2.51 µM (inactive)
GI50 (BT-549): > 7.5 µM (inactive)
GI50 (RXF 393): > 7.5 µM (inactive)
GI50 (LOX IMVI): > 7.5 µM (inactive)
GI50 (HCT-15): 6.92 µM
GI50 (NCI-H23): > 7.5 µM (inactive)
GI50 (SF-539): 2.83 µM (inactive)
GI50 (DU-145): > 7.5 µM (inactive)
GI50 (Hs-578T): 2.77 µM (inactive)
GI50 (MDA-MB-231): 3.25 µM (inactive)
GI50 (MOLT-4): 0.676 µM (active)
GI50 (OVCAR-5): > 7.5 µM (inactive)
GI50 (SNB-75): 3.02 µM (inactive)
GI50 (786-0): 4.49 µM (inactive)
GI50 (UO-31): 6.52 µM (inactive)
GI50 (HOP-92): > 7.5 µM (inactive)
GI50 (HOP-62): 1.16 µM (inactive)
GI50 (CAKI-1): 2.57 µM (inactive)
GI50 (K562): 0.538 µM (active)
GI50 (PC-3): > 7.5 µM (inactive)
GI50 (SK-OV-3): > 7.5 µM (inactive)
GI50 (HCT-116): > 7.5 µM (inactive)
GI50 (SN12C): > 7.5 µM (inactive)
GI50 (NCI-H460): 0.555 µM (active)
GI50 (KM12): > 7.5 µM (inactive)
GI50 (SF-268): 6.24 µM (inactive)
GI50 (SK-MEL-2): > 7.5 µM (inactive)
GI50 (COLO 205): 2.13 µM (inactive)
GI50 (MDA-MB-435): 3.01 µM (inactive)
GI50 (UACC-257): > 7.5 µM (inactive)
GI50 (SNB-19): > 7.5 µM (inactive)
GI50 (NCI-H522): > 7.5 µM (inactive)
GI50 (OVCAR-8): > 7.5 µM (inactive)
GI50 (T47D): > 7.5 µM (inactive)
GI50 (ACHN): > 7.5 µM (inactive)
GI50 (SK-MEL-5): 7.18 µM (inactive)
GI50 (HCC 2998): > 7.5 µM (inactive)
GI50 (OVCAR-3): > 7.5 µM (inactive)
GI50 (OVCAR-4): > 7.5 µM (inactive)
GI50 (TK-10): 5.78 µM (inactive)
GI50 (M14): 2.14 µM (inactive)
GI50 (U-251): > 7.5 µM (inactive)
GI50 (MCF7): > 7.5 µM (inactive)
GI50 (A498): 3.23 µM (inactive)
GI50 (SR): > 7.5 µM (inactive)

CCN1CC2(COC)C(O)CC(OC)C34C5CC6(O)C(OC)C=C(C5C6OC(=O)c5ccc(OC)c(OC)c5)C(C(OC)C23)C14 (configuration not stated)
GI50 (MDA-N): > 7.5 µM (inactive)
GI50 (NCI/ADR-RES): > 7.5 µM (inactive)
GI50 (SW-620): > 7.5 µM (inactive)
GI50 (UACC-62): > 7.5 µM (inactive)
GI50 (SF-295): > 7.5 µM (inactive)
GI50 (BT-549): > 7.5 µM (inactive)
GI50 (CCRF-CEM): > 7.5 µM (inactive)
GI50 (LOX IMVI): > 7.5 µM (inactive)
GI50 (HCT-15): > 7.5 µM
GI50 (NCI-H23): > 7.5 µM (inactive)
GI50 (SF-539): > 7.5 µM (inactive)
GI50 (DU-145): > 7.5 µM (inactive)
GI50 (Hs-578T): > 7.5 µM (inactive)
GI50 (MDA-MB-231): > 7.5 µM (inactive)
GI50 (OVCAR-5): > 7.5 µM (inactive)
GI50 (SNB-75): 4.51 µM (inactive)
GI50 (IGROV-1): > 7.5 µM (inactive)
GI50 (786-0): > 7.5 µM (inactive)
GI50 (UO-31): > 7.5 µM (inactive)
GI50 (HL-60): > 7.5 µM (inactive)
GI50 (HOP-92): > 7.5 µM (inactive)
GI50 (CAKI-1): > 7.5 µM (inactive)
GI50 (SK-MEL-28): > 7.5 µM (inactive)
GI50 (K562): > 7.5 µM (inactive)
GI50 (PC-3): > 7.5 µM (inactive)
GI50 (HT-29): > 7.5 µM (inactive)
GI50 (Malme-3M): > 7.5 µM (inactive)
GI50 (SK-OV-3): > 7.5 µM (inactive)
GI50 (HCT-116): > 7.5 µM (inactive)
GI50 (NCI-H226): > 7.5 µM (inactive)
GI50 (SN12C): > 7.5 µM (inactive)
GI50 (NCI-H460): > 7.5 µM (inactive)
GI50 (KM12): > 7.5 µM (inactive)
GI50 (SF-268): > 7.5 µM (inactive)
GI50 (SK-MEL-2): > 7.5 µM (inactive)
GI50 (COLO 205): > 7.5 µM (inactive)
GI50 (MDA-MB-435): > 7.5 µM (inactive)
GI50 (UACC-257): > 7.5 µM (inactive)
GI50 (SNB-19): > 7.5 µM (inactive)
GI50 (NCI-H522): > 7.5 µM (inactive)
GI50 (OVCAR-8): > 7.5 µM (inactive)
GI50 (EKVX): > 7.5 µM (inactive)
GI50 (T47D): > 7.5 µM (inactive)
GI50 (ACHN): > 7.5 µM (inactive)
GI50 (SK-MEL-5): > 7.5 µM (inactive)
GI50 (HCC 2998): > 7.5 µM (inactive)
GI50 (A549): > 7.5 µM (inactive)
GI50 (OVCAR-4): > 7.5 µM (inactive)
GI50 (TK-10): > 7.5 µM (inactive)
GI50 (M14): > 7.5 µM (inactive)
GI50 (U-251): > 7.5 µM (inactive)
GI50 (MCF7): > 7.5 µM (inactive)
GI50 (A498): > 7.5 µM (inactive)
GI50 (SR): > 7.5 µM (inactive)

Cc1ccc(-c2nc3cc(F)c(N4CCN(C)CC4)cc3[nH]2)cc1
GI50 (MDA-N): 32.4 µM (inactive)
GI50 (NCI/ADR-RES): 28.8 µM (inactive)
GI50 (SW-620): 37.1 µM (inactive)
GI50 (UACC-62): 16.3 µM (inactive)
GI50 (SF-295): 16.6 µM (inactive)
GI50 (BT-549): 22.1 µM (inactive)
GI50 (RXF 393): 18.5 µM (inactive)
GI50 (CCRF-CEM): 23.4 µM (inactive)
GI50 (LOX IMVI): 27.9 µM (inactive)
GI50 (HCT-15): 6.32 µM
GI50 (NCI-H23): 22.2 µM (inactive)
GI50 (DU-145): 31.1 µM (inactive)
GI50 (Hs-578T): 10.7 µM (inactive)
GI50 (MDA-MB-231): 71.3 µM (inactive)
GI50 (MOLT-4): 22.8 µM (inactive)
GI50 (OVCAR-5): 21.9 µM (inactive)
GI50 (IGROV-1): 22.7 µM (inactive)
GI50 (786-0): 17.6 µM (inactive)
GI50 (UO-31): 13.9 µM (inactive)
GI50 (RPMI-8226): 33.6 µM (inactive)
GI50 (HL-60): 21.4 µM (inactive)
GI50 (HOP-92): 66.5 µM (inactive)
GI50 (HOP-62): 15.8 µM (inactive)
GI50 (CAKI-1): 32.1 µM (inactive)
GI50 (SK-MEL-28): 26.2 µM (inactive)
GI50 (K562): 16.4 µM (inactive)
GI50 (PC-3): 24.1 µM (inactive)
GI50 (Malme-3M): 15.3 µM (inactive)
GI50 (SK-OV-3): 23.4 µM (inactive)
GI50 (HCT-116): 19.6 µM (inactive)
GI50 (NCI-H226): 8.3 µM (inactive)
GI50 (SN12C): 54.1 µM (inactive)
GI50 (NCI-H460): 16.9 µM (inactive)
GI50 (KM12): 14 µM (inactive)
GI50 (SF-268): 15.3 µM (inactive)
GI50 (SK-MEL-2): 17.1 µM (inactive)
GI50 (COLO 205): 15.9 µM (inactive)
GI50 (MDA-MB-435): 22.4 µM (inactive)
GI50 (UACC-257): 17.2 µM (inactive)
GI50 (SNB-19): 22 µM (inactive)
GI50 (NCI-H522): 14.5 µM (inactive)
GI50 (EKVX): 23.1 µM (inactive)
GI50 (T47D): 23 µM (inactive)
GI50 (ACHN): 21.1 µM (inactive)
GI50 (SK-MEL-5): 11.4 µM (inactive)
GI50 (HCC 2998): 11.9 µM (inactive)
GI50 (A549): 19.1 µM (inactive)
GI50 (OVCAR-4): 17.1 µM (inactive)
GI50 (TK-10): 22.2 µM (inactive)
GI50 (M14): 16.7 µM (inactive)
GI50 (U-251): 29.5 µM (inactive)
GI50 (MCF7): 15.3 µM (inactive)
GI50 (A498): 32.7 µM (inactive)
GI50 (SR): 32.6 µM (inactive)
